# Measurements reported in patent US7183267B2, “β-lactamase inhibitors and methods of use thereof” (priority 2003, dated 2007).
# Key:
# [1] = target: T1, TEM-1 β-lactamase (Escherichia coli, UniProt P62593); assay: TEM-1 β-lactamase inhibition assay (nitrocefin hydrolysis, 486 nm); assay type: biochemical
# Protocol: The inhibition of TEM-1 β-lactamase was determined spectrophotometrically. B-lactamase activity was followed by measuring the hydrolysis of nitrocefin, [3-(2,4-dinitrostyryl)-(6R, 7R)-7-(2-thienylacetamido)-ceph-3-em-4-carboxylic acid, E-isomer], (Calbiochem, San Diego, Calif., USA) at 486 nm. Inhibition assays were performed at 25° C. in 50 mM sodium phosphate, 5% DMSO, pH 7.0. […] Inhibitor was added to the enzyme and incubated for ten minutes before the addition of substrate. Inhibition constants (Ki) for the inhibitors are obtained at the desired temperature and solvent conditions by measuring the rate of substrate hydrolysis at increasing amounts of inhibitors.
# (§1) The competitive inhibition of β-lactamase was determined spectrophotometrically using a Varian (Walnut Creek, Calif.) Cary 100 UV-Visible spectrophotometer. β-lactamase activity was followed by measuring the hydrolysis of nitrocefin, [3-(2,4-dinitrostyryl)-(6R, 7R)-7-(2-thienylacetamido)-ceph-3-em-4-carboxylic acid, E-isomer], (Calbiochem, San Diego, Calif.) at 486 nm. Inhibition assays were performed at 25° C. in 50 mM sodium phosphate, 5% DMSO, pH 7.0. […] Penicillin G (Sigma, St. Louis, Mo.) was also used as a substrate to determine KM and kcat.
# (§2) Inhibitor was added to protein and incubated for ten minutes before the addition of substrate. Inhibition constants were determined by measuring the loss of P-lactamase activity with increasing inhibitor concentrations and fitting the data to standard equations for competitive inhibition.
# (§3) These methods can also be used to express and assay recombinant TEM-1 variant of β-lactamase.
# [2] = target: T2, AmpC β-lactamase (Escherichia coli, UniProt P00811); details: binding to AmpC; ITC
# T2 construct: made in house; host or cells: E. coli BL21 (DE3)
# T2 sequence (P00811 20-377): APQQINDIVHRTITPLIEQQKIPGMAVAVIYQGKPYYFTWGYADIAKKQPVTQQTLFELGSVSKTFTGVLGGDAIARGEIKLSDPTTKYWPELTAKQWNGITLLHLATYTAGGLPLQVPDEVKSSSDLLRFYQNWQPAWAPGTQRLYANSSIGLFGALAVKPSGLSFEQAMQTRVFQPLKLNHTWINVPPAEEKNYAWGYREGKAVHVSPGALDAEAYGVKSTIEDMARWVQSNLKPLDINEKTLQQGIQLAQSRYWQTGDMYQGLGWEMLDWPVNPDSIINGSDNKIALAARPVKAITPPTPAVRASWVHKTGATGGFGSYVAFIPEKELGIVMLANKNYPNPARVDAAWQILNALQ
# Protocol: (§4) Isothermal titration calorimetry was performed on a high-precision VP-ITC titration calorimeter (Microcal Inc., Northampton, Mass.). β-Lactamase solutions were titrated with inhibitors in 50 mM sodium phosphate, 2% DMSO, pH 7.0, with β-lactamase concentrations ranging from 15 to 25 μM and inhibitor concentrations ranging from 300 to 1000 μM. The heat evolved from each injection was obtained by integrating the calorimetric signal. Heat of binding was obtained as the difference between the heat of reaction and the heat of inhibitor dilution. Data were analyzed using Origin 7.0 (OriginLab Corporation, Northampton, Mass.).
# Isothermal titration calorimetry was undertaken to determine the thermodynamic characteristics of binding to AmpC β-lactamase.
# [3] = target: T2, AmpC β-lactamase; assay: AmpC β-lactamase competitive inhibition assay (nitrocefin hydrolysis); assay type: biochemical
# Protocol: The gene for AmpC β-lactamase (accession number P00811) was obtained from Escherichia coli K12 strain W3110 (American Type Culture Collection, Rockville Md.). E. coli was grown and plasmid (F-lacIq lacPL8 ampC::lambdacI+) was isolated via Qiagen (Valencia, Calif.) mini prep. The gene for AmpC was amplified in two pieces via polymerase chain reaction, ligated and purified by agarose gel electrophoresis. The ligated gene was inserted into a pET200 vector via a TOPO reaction (Invitrogen, Carlsbad, Calif.).
# BL21 (DE3) (Invitrogen) cells were transformed by heat-shock with the prepared plasmid. These cells were grown to an OD600 of 0.8 at 37° C. Isopropylthiogalactoside (IPTG) was added to 1 mM, incubation temperature decreased to 25° C. and the cells were grown for an additional 18 hours. After 18 hours, the E. coli was pelleted by centrifugation, and discarded. The growth media was concentrated and dialyzed versus 100 mM Tris, pH 7.0. This solution was run through an equilibrated Q-resin column, and washed with excess 100 mM Tris, pH 7.0.
# as §1, §2
# [4] = target: T1, TEM-1 β-lactamase; assay: Isothermal titration calorimetry, binding to TEM-1 β-lactamase (Example 17); details: ITC
# Protocol: as §4, §3
# Also shown are the results obtained for β-lactamase variant TEM-1.
# [5] = Ki, 25° C., 50 mM sodium phosphate, 5% DMSO, pH 7.0, enzyme 5 nM, nitrocefin 167 μM
# [6] = Ki from Lineweaver-Burke Analysis, values in parenthesis, Lineweaver-Burke analysis
# T1 sequence (P62593 24-286 limits assumed): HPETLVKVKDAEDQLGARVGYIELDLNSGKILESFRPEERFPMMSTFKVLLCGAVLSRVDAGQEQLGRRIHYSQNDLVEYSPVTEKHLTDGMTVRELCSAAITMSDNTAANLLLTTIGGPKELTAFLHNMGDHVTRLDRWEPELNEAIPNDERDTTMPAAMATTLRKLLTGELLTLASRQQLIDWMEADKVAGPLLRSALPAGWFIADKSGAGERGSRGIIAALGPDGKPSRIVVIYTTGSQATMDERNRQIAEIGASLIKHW
SMILES,"Ki [1, 5]",ΔG [4],ΔH [4],−TΔS [4],"Ki ([1]; Ki, TEM-1 β-lactamase)",other results
"O=C(Oc1ccc(F)cc1)c1cc(B(O)O)cc([N+](=O)[O-])c1 [Compound (1q), 3-(4-Fluorophenoxycarbonyl)-5-nitrophenylboronic acid]",100 ± 8 µM,,,,,
"Nc1cc(B(O)O)cc(C(=O)OCc2cccc(B(O)O)c2)c1 [Compound (3f), 3-(3-Boronobenzyloxycarbonyl)-5-aminophenylboronic acid]",,,,,,ΔG [2]: -34.1 kJ/mol; ΔH [2]: -39.02 kJ/mol; −TΔS [2]: 4.912 kJ/mol; Ki [3]: 0.724 µM
"COc1ccccc1OC(=O)c1cc(B(O)O)cc([N+](=O)[O-])c1 [Compound (1l), 3-(2-Methoxylphenoxycarbonyl)-5-nitrophenylboronic acid]",116 ± 7 µM,,,,,
"O=C(OCc1cccc2ccccc12)c1cc(B(O)O)cc([N+](=O)[O-])c1 [Compound (3e), 3-(1-Naphthalenemethoxycarbonyl)-5-nitrophenylboronic acid]",,-25.79 kJ/mol,0.937 kJ/mol,-26.73 kJ/mol,17.1 µM,
"O=C(Oc1c(F)cccc1F)c1cc(B(O)O)cc([N+](=O)[O-])c1 [Compound (1p), 3-(2,6-Difluorophenoxycarbonyl)-5-nitrophenylboronic acid]",19.8 ± 1.3 µM,-24.75 kJ/mol,-28.1 kJ/mol,3.34 kJ/mol,19.8 µM,
"Cc1ccccc1OC(=O)c1cc(B(O)O)cc([N+](=O)[O-])c1 [Compound (1k), 3-(2-Methylphenoxycarbonyl)-5-nitro-phenylboronic acid]",130 ± 18 µM,,,,,
"O=C(OCc1c(Cl)cccc1Cl)c1cc(B(O)O)cc([N+](=O)[O-])c1 [Compound (3a), 3-(2,6-Dichlorobenzyloxycarbonyl)-5-nitrophenylboronic]",34 ± 2.9 µM,,,,,"Ki [1, 6]: 4.97 µM"
O=C(c1cccc(B(O)O)c1)N1CCCC1 [Compound BB-1005],392 µM,,,,,
"O=C(Oc1ccccc1Br)c1cc(B(O)O)cc([N+](=O)[O-])c1 [(1u), 3-(2-Bromophenoxycarbonyl)-5-nitro-phenylboronic acid]",25 ± 2.5 µM,,,,,"Ki [1, 6]: 1.68 µM"
CC(C)(C)OC(=O)Oc1cccc(B(O)O)c1 [Compound BB-1004],297 µM,,,,,
"O=C(Oc1c(Cl)cccc1Cl)c1cc(B(O)O)cc([N+](=O)[O-])c1 [Compound (1n), 3-(2,6-Dichlorophenoxycarbonyl)-5-nitrophenylboronic acid]",8.8 ± 0.5 µM,-23.46 kJ/mol,-4.908 kJ/mol,-18.56 kJ/mol,8.8 µM,"Ki [1, 6]: 0.62 µM"
"CCOC(=O)c1ccc(OC(=O)c2cc(B(O)O)cc([N+](=O)[O-])c2)cc1 [Compound (1e), 3-(4-Ethoxycarbonylphenoxycarbonyl)-5-nitrophenylboronic acid]",> 1000 µM,,,,,
"O=C(OCc1cccc(B(O)O)c1)c1cc(O)cc(B(O)O)c1 [Compound (3g), 3-(3-Boronobenzyloxycarbonyl)-5-hydroxylphenylboronic acid]",,,,,,ΔG [2]: -30.78 kJ/mol; ΔH [2]: -15.38 kJ/mol; −TΔS [2]: -15.39 kJ/mol; Ki [3]: 2.69 µM
"O=C(Oc1c(Cl)cc(Cl)cc1[N+](=O)[O-])c1cc(B(O)O)cc([N+](=O)[O-])c1 [Compound (1w), 3-(2,4-Dichloro-6-nitro-phenoxycarbonyl)-5-nitro-phenylboronic acid]",13 ± 1.1 µM,-26.82 kJ/mol,-19.05 kJ/mol,-7.761 kJ/mol,12.7 µM,
"O=C(Oc1cccc(OC(=O)c2cc(B(O)O)cc([N+](=O)[O-])c2)c1)c1cc(B(O)O)cc([N+](=O)[O-])c1 [Compound (9a), 3-Borono-5-nitrobenzoic acid 1,3-phenylene ester]",16 ± 1.5 µM,-32.9 kJ/mol,1.87 kJ/mol,-34.77 kJ/mol,16.2 µM,
"O=C(O)c1cc(NC(=O)c2ccccc2F)cc(B(O)O)c1 [Compound (4a), 3-(2-Fluorobenzamido)-5-carboxylphenylboronic acid]",143 ± 9 µM,,,,,
